Measurements from US9309179B2 (FAB PHARMA S.A.S., priority 2006, dated 2016).
In brackets after ≈: the same amount, converted by molar mass. Read-outs that look alike come from different tables or passages of the source.

Columns and labels:
Experiment in all cases: MIC, broth microdilution
Type in all cases: cell-based
[1] = test system: S. aureus CIP 76.25; conditions: Staphylococcus aureus, read-out: MIC S. aureus CIP 76.25
Description: (§1) The compounds of the present invention are useful antibacterial agents having a selective spectrum of activity in vitro against standard bacterial strains which are used to screen for activity against pathogenic bacteria. […] The activity is presented as Minimum Inhibitory Concentration (MIC) expressed in μg/ml.
(§2) Whole-cell antimicrobial activity was determined by broth microdilution method in microtiterplates. The compound was tested in serial 4-fold dilutions ranging from 0.06 to 64 mcg/mL. Test organisms were selected from the following laboratory strains: Staphylococcus aureus CIP 76.25, Staphylococcus aureus BAA39 MDR, Staphylococcus aureus NEM 14157 PeniR, Staphylococcus aureus CIP 54.146, Escherichia coli CIP 76.24. Bacteria were tested in Tryptic Soy (TS) or Mueller Hinton (MH) broth using an inoculum of 10^4 to 10^6 UFC/mL incubated at 37° C. for 20 h.
(§3) The minimum inhibitory concentration (MIC) was determined as the lowest concentration of compound at which no visible bacteria growth is observed (90% inhibition of absorbance of at […].)

[2] = test system: E. coli CIP 76.24; conditions: Escherichia coli, read-out: MIC E. coli CIP 76.24
Description: as §1, §2, §3

[3] = test system: S. aureus NEM14157; conditions: Staphylococcus aureus, NEM14157; broth microdilution, 37° C., 20 h; read-out: MIC S. aureus NEM14157
Description: as §1, §2, §3

[4] = test system: S. aureus BAA39MDR; conditions: Staphylococcus aureus, broth microdilution, 37° C., 20 h, read-out: MIC S. aureus BAA39MDR
Description: as §1, §2, §3

[5] = CIP76, broth microdilution, 37° C., 20 h

Row | Structure (SMILES) | MIC [1, 5] | MIC [2, 5] | MIC [3] | MIC [4] | MIC ([1]; CIP76, 20 h) | MIC ([2]; CIP76, 20 h)
1 | Oc1cc(Cn2cncn2)ccc1Oc1cccc(F)n1 [Example 32, 2-[(6-fluoropyridin-2-yl)oxy]-5-(1H-1,2,4-triazol-1-ylmethyl)phenol] | 4 µg/mL (≈ 14 µM) | 16 µg/mL (≈ 55.9 µM) |  |  |  | 
2 | CCc1ccc(Oc2cccc(F)n2)c(O)c1 [Example 3, 5-ethyl-2-[(6-fluoropyridin-2-yl)oxy]phenol] | 0.25 µg/mL (≈ 1.07 µM) | 4 µg/mL (≈ 17.1 µM) | 0.25 µg/mL (≈ 1.07 µM) | 0.25 µg/mL (≈ 1.07 µM) |  | 
3 | CCc1cc(O)c(Oc2ccc(N)cc2)cc1F [Example 62, 2-(4-aminophenoxy)-5-ethyl-4-fluorophenol] | 0.25 µg/mL (≈ 1.01 µM) | 4 µg/mL (≈ 16.2 µM) |  |  |  | 
4 | CCc1ccc(Oc2ccc(S(C)(=O)=O)cc2)c(O)c1 [Example 47, 5-ethyl-2-[4-(methylsulfonyl)phenoxy]phenol] | 0.25 µg/mL (≈ 0.855 µM) | 16 µg/mL (≈ 54.7 µM) |  |  |  | 
5 | CCc1ccc(Oc2ccc(NCCO)cc2F)c(O)c1 [Example 81, 5-Ethyl-2-[2-fluoro-4-(2-hydroxyethylamino)-phenoxy]phenol] | 0.25 µg/mL (≈ 0.858 µM) | 4 µg/mL (≈ 13.7 µM) |  |  |  | 
6 | CCc1ccc(Oc2ccc(NS(=O)(=O)C3CC3)cc2F)c(O)c1 [Example 52, N-[4-(4-ethyl-2-hydroxyphenoxy)-3-fluorophenyl]cyclopropane sulfonamide] | 1 µg/mL (≈ 2.85 µM) | 16 µg/mL (≈ 45.5 µM) |  |  |  | 
7 | CCc1ccc(Oc2ccc(S(N)(=O)=O)cc2F)c(O)c1 [Example 65, 4-(4-ethyl-2-hydroxyphenoxy)-3-fluorobenzene sulfonamide] | 0.25 µg/mL (≈ 0.803 µM) | 1 µg/mL (≈ 3.21 µM) |  |  |  | 
8 | CCCc1ccc(Oc2nc(Cl)ccc2N)c(O)c1 [Example 1, 2-[(3-amino-6-chloropyridin-2-yl)oxy]-5-propylphenol] | 1 µg/mL (≈ 3.59 µM) | 16 µg/mL (≈ 57.4 µM) | 0.25 µg/mL (≈ 0.897 µM) | 1 µg/mL (≈ 3.59 µM) |  | 
9 | CCc1ccc(Oc2ccc(OCCCC(=O)O)cc2F)c(O)c1 [Example 74, 4-[4-(4-Ethyl-2-hydroxy-phenoxy)-3-fluoro-phenoxy]-butyric acid] | 0.062 µg/mL (≈ 0.185 µM) | 4 µg/mL (≈ 12 µM) | 0.062 µg/mL (≈ 0.185 µM) | 0.062 µg/mL (≈ 0.185 µM) |  | 
10 | CCc1ccc(Oc2ccc(NCc3cccnc3)cc2F)c(O)c1 [Example 66, 5-ethyl-2-{2-fluoro-4-[(pyridin-3-ylmethyl)amino]phenoxy}phenol] | 0.25 µg/mL (≈ 0.739 µM) | 16 µg/mL (≈ 47.3 µM) |  |  |  | 
11 | CCCNc1ccc(Oc2ccc(CC)cc2O)c(F)c1 [Example 82, 5-ethyl-2-[2-fluoro-4-(propylamino)phenoxy]phenol] | 0.25 µg/mL (≈ 0.864 µM) | 16 µg/mL (≈ 55.3 µM) |  |  |  | 
12 | CCc1ccc(Oc2ccc(OCCCN3C(=O)c4ccccc4C3=O)cc2F)c(O)c1 [Example 38, 2-{3-[4-(4-Ethyl-2-hydroxy-phenoxy)-3-fluoro-phenoxy]-propyl}-isoindole-1,3-dione] | 0.062 µg/mL (≈ 0.142 µM) | 4 µg/mL (≈ 9.19 µM) | 1 µg/mL (≈ 2.3 µM) | 0.25 µg/mL (≈ 0.574 µM) |  | 
13 | CCCc1ccc(Oc2cc(F)cc(F)n2)c(O)c1 [Example 25A, 2-[(4,6-difluoropyridin-2-yl)oxy]-5-propylphenol] | 0.25 µg/mL (≈ 0.942 µM) | 16 µg/mL (≈ 60.3 µM) |  |  |  | 
14 | CCc1ccc(Oc2ccc(S(=O)(=O)NCCNC(C)=O)cc2F)c(O)c1 [Example 70, N-{2-[4-(4-Ethyl-2-hydroxy-phenoxy)-3-fluoro-benzenesulfonylamino]-ethyl}-acetamide] | 0.25 µg/mL (≈ 0.631 µM) | 16 µg/mL (≈ 40.4 µM) |  |  |  | 
15 | CCCc1ccc(Oc2cccc(N)n2)c(O)c1 [Example 7, 2-[(6-aminopyridin-2-yl)oxy]-5-propylphenol] | 2 µg/mL (≈ 8.19 µM) | > 16 µg/mL |  |  |  | 
16 | Oc1cc(Cl)ccc1Oc1ccc(Cl)cc1Cl [Triclosan, 5-chloro-2-(2,4-dichloro-phenoxy)-phenol, reference compound] |  |  |  |  | 0.125 µg/mL (≈ 0.432 µM) | 0.25 µg/mL (≈ 0.863 µM)
17 | CCc1ccc(Oc2ccc(S(=O)(=O)NCCO)cc2F)c(O)c1 [Example 67, 4-(4-ethyl-2-hydroxyphenoxy)-3-fluoro-N-(2-hydroxyethyl)benzenesulfonamide] | 0.25 µg/mL (≈ 0.703 µM) | 16 µg/mL (≈ 45 µM) |  |  |  | 
